This assay deals with Glucagon receptor (Homo sapiens, UniProt P47871). Put plainly: Binding Assay: The binding assay was performed by a filtration method in a 384 well format. Membranes at a final protein concentration of 6 μg/well were incubated with 125I-glucagon at 0.3 nM and in the presence of compound for 2 hours at room temperature in a total reaction volume of 40 μL per well. Assay buffer consisted of 50 mM HEPES, pH 7.4, 5 mM MgCl2, 1 mM CaCl2 and 0.2% BSA. 30 μL of the reaction was then transferred to PEI treated filter plates and followed by filter aspiration. Plates were then washed 5x and allowed to dry at room temperature overnight. The next day the bottom of the plate was covered with seal tape and scintillant was added. Total counts retained by the filters were quantified with a Top Count instrument.
Glucagon receptor, sequence (P47871 whole entry): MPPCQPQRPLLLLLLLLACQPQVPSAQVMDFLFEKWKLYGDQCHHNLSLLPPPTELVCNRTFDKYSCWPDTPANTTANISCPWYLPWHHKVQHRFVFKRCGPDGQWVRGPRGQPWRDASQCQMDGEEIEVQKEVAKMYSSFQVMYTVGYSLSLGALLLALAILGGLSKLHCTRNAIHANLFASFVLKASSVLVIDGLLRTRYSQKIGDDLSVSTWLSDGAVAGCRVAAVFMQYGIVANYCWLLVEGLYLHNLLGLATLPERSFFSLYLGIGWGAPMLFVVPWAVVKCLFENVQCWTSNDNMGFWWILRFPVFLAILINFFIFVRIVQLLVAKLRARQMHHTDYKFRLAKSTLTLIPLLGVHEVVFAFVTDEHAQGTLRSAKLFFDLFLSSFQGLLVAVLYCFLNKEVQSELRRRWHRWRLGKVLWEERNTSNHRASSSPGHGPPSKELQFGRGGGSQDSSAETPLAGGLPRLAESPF

Usually Ki stands for a dissociation constant, usually derived from enzyme kinetics or from competition with a known ligand. As to `O=C(O)CCNC(=O)c1ccc(-c2cc(C(F)(F)F)ccc2CNc2ccc(-c3ccc(Cl)cc3C(F)(F)F)cc2)cn1`, the Ki came to 47 nM.

The values above are taken from ChEMBL document CHEMBL3638560, “Picolinamido-propanoic acid derivatives useful as glucagon receptor antagonists” (2014).
